ChEMBL document CHEMBL4480418, “Antibacterial activity of indolyl-quinolinium derivatives and study their mode of action” (Bioorg Med Chem, 2019)
In brackets after ≈: the same amount, converted by molar mass. Activity calls are given as the source filed them. No cut-off for these calls is given here.

Key:
Bacillus subtilis [1] = assay: Antibacterial activity against Bacillus subtilis 168 measured after 18 hrs by broth microdilution method; assay type: functional; settings: subsp. subtilis str. 168, 18 h
Staphylococcus aureus [2] = assay: Antimicrobial activity against Staphylococcus aureus ATCC 25923 measured after 18 hrs by broth microdilution method; assay type: functional; settings: ATCC 25923, 18 h
Staphylococcus aureus [3] = assay: Antimicrobial activity against penicillin-resistant Staphylococcus aureus ATCC 29213 measured after 18 hrs by broth microdilution method; assay type: functional; settings: ATCC 29213, 18 h
Staphylococcus aureus [4] = assay: Antimicrobial activity against methicillin-resistant Staphylococcus aureus ATCC BAA-41 measured after 18 hrs by broth microdilution method; assay type: functional; settings: ATCC BAA-41, 18 h
Staphylococcus aureus [5] = assay: Antimicrobial activity against methicillin-resistant Staphylococcus aureus ATCC 43300 measured after 18 hrs by broth microdilution method; assay type: functional; settings: ATCC 43300, 18 h
Enterococcus faecium [6] = assay: Antimicrobial activity against vancomycin-resistant Enterococcus faecium ATCC 700221 measured after 18 hrs by broth microdilution method; assay type: functional; settings: ATCC 700221, 18 h
Enterococcus faecium [7] = assay: Antimicrobial activity against drug-susceptible Enterococcus faecium ATCC 49624 measured after 18 hrs by broth microdilution method; assay type: functional; settings: ATCC 49624, 18 h
Enterococcus faecalis = assay: Antimicrobial activity against Enterococcus faecalis ATCC 29212 measured after 18 hrs by broth microdilution method; assay type: functional; settings: ATCC 29212, 18 h
Escherichia coli [8] = assay: Antimicrobial activity against Escherichia coli ATCC 25922 measured after 18 hrs by broth microdilution method; assay type: functional; settings: ATCC 25922, 18 h
Escherichia coli [9] = assay: Antimicrobial activity against NDM1 beta -lactamse expressing Escherichia coli ATCC BAA-2469 measured after 18 hrs by broth microdilution method; assay type: functional; settings: ATCC BAA-2469, 18 h
Acinetobacter baumannii = assay: Antimicrobial activity against multidrug-resistant Acinetobacter baumannii ATCC 19606 measured after 18 hrs by broth microdilution method; assay type: functional; settings: ATCC 19606 = CIP 70.34 = JCM 6841, 18 h
Klebsiella pneumoniae = assay: Antimicrobial activity against NDM1 beta-lactamase expressing Klebsiella pneumoniae ATCC BAA-2470 measured after 18 hrs by broth microdilution method; assay type: functional; settings: ATCC BAA-2470, 18 h
Pseudomonas aeruginosa = assay: Antimicrobial activity against multidrug-resistant Pseudomonas aeruginosa ATCC BAA-2108 measured after 18 hrs by broth microdilution method; assay type: functional; settings: ATCC BAA-2108, 18 h
Enterobacter cloacae = assay: Antimicrobial activity against Ampc beta-lactamase expressing Enterobacter cloacae ATCC BAA-1143 measured after 18 hrs by broth microdilution method; assay type: functional; settings: ATCC BAA-1143, 18 h
Staphylococcus aureus [10] = assay: Bactericidal activity against penicillin-resistant Staphylococcus aureus ATCC 29213 incubated for 18 hrs followed by replating on TSB agar and measured after 24 hrs by broth microdilution method; assay type: functional
Staphylococcus aureus [11] = assay: Bactericidal activity against methicillin-resistant Staphylococcus aureus ATCC BAA-41 incubated for 18 hrs followed by replating on TSB agar and measured after 24 hrs by broth microdilution method; assay type: functional
Staphylococcus aureus [12] = assay: Ratio of MBC to MIC for methicillin-resistant Staphylococcus aureus ATCC BAA-41; assay type: functional
Staphylococcus aureus [13] = assay: Ratio of MBC to MIC for penicillin-resistant Staphylococcus aureus ATCC 29213; assay type: functional
Staphylococcus aureus [14] = assay: Antimicrobial activity against penicillin-resistant Staphylococcus aureus ATCC 29213 assessed as ratio of MIC after and before 15 serial passages preincubated followed by replating and measured after 24 hrs; assay type: functional
[15] = molecular target: T1, Cell division protein FtsZ (Bacillus subtilis (strain 168)) (UniProt P17865); assay: Inhibition of cell division function of FtsZ in Bacillus subtilis 168 assessed as increase in cell length at MIC after 4 hrs by FM4-64 dye based confocal microscopic method; settings: Bacillus subtilis subsp. subtilis str. 168
T1 sequence (whole entry): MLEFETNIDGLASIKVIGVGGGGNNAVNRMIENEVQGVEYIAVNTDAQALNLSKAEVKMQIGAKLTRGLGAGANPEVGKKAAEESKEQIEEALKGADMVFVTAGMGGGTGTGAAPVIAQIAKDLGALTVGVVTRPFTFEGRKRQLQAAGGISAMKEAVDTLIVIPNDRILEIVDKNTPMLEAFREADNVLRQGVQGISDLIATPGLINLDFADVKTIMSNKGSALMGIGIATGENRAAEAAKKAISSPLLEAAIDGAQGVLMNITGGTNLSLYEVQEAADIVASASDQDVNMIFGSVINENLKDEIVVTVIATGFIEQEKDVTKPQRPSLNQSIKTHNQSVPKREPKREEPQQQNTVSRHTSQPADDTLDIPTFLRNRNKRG

[16] = molecular target: T2, Cell division protein FtsZ (Staphylococcus aureus) (UniProt P0A031); assay: Inhibition of Staphylococcus aureus FtsZ GTPase activity at 64 ug/ml preincubated for 10 mins followed by GTP addition and measured after 30 mins relative to control
T2 sequence (whole entry): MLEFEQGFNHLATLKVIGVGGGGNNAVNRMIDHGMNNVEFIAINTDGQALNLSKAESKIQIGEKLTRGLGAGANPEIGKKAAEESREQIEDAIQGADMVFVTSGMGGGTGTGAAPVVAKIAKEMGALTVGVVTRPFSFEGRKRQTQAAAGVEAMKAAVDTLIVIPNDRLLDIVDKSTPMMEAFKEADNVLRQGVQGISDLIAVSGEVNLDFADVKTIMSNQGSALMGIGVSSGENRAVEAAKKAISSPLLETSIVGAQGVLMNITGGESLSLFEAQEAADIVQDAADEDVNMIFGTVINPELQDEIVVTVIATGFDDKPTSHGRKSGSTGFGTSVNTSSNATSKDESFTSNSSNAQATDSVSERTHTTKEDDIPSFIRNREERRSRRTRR

[17] = molecular target: T2, Cell division protein FtsZ (Staphylococcus aureus); assay: Inhibition of Staphylococcus aureus FtsZ GTPase activity at 32 ug/ml preincubated for 10 mins followed by GTP addition and measured after 30 mins relative to control
[18] = molecular target: T2, Cell division protein FtsZ (Staphylococcus aureus); assay: Inhibition of Staphylococcus aureus FtsZ GTPase activity at 16 ug/ml preincubated for 10 mins followed by GTP addition and measured after 30 mins relative to control
[19] = molecular target: T2, Cell division protein FtsZ (Staphylococcus aureus); assay: Inhibition of Staphylococcus aureus FtsZ GTPase activity at 4 ug/ml preincubated for 10 mins followed by GTP addition and measured after 30 mins relative to control
[20] = molecular target: T2, Cell division protein FtsZ (Staphylococcus aureus); assay: Inhibition of Staphylococcus aureus FtsZ GTPase activity at 1 ug/ml preincubated for 10 mins followed by GTP addition and measured after 30 mins relative to control
[21] = molecular target: T2, Cell division protein FtsZ (Staphylococcus aureus); assay: Inhibition of Staphylococcus aureus FtsZ GTPase activity preincubated for 10 mins followed by GTP addition and measured after 30 mins
Escherichia coli [22] = assay: Antibacterial activity against Escherichia coli BL21 measured after 18 hrs by broth microdilution method; assay type: functional; settings: BL21, 18 h
Escherichia coli [23] = assay: Antibacterial activity against FtsZ over-expressing Escherichia coli BL21 measured after 18 hrs by broth microdilution method; assay type: functional; settings: BL21, 18 h
Staphylococcus aureus [24] = assay: Bactericidal activity against methicillin-resistant Staphylococcus aureus ATCC BAA-41 assessed as reduction in bacterial load at 2 to 4 times MIC incubated for 4 hrs followed by replating on MH agar and measured after 24 hrs by time-kill assay; assay type: functional, organism-based
Staphylococcus aureus [25] = assay: Bactericidal activity against methicillin-resistant Staphylococcus aureus ATCC BAA-41 assessed as reduction in bacterial load incubated for 1 to 24 hrs followed by replating on MH agar and measured after 24 hrs by time-kill assay; assay type: functional, organism-based
Staphylococcus aureus [26] = assay: Bactericidal activity against methicillin-resistant Staphylococcus aureus ATCC BAA-41 assessed as bacterial load at 1 to 4 times MIC incubated for 24 hrs followed by replating on MH agar and measured after 24 hrs by time-kill assay; assay type: functional
[27] = molecular target: T1, Cell division protein FtsZ (Bacillus subtilis (strain 168)); assay: Inhibition of cell division function of FtsZ in Bacillus subtilis 168 assessed as cell length at MIC after 4 hrs by FM4-64 dye based confocal microscopic method; settings: Bacillus subtilis subsp. subtilis str. 168
Bacillus subtilis [28] = assay: Disruption of membrane integrity in Bacillus subtilis 168 at MIC after 4 hrs by FM4-64 dye based confocal microscopic method; assay type: organism-based, subsp. subtilis str. 168
[29] = molecular target: T2, Cell division protein FtsZ (Staphylococcus aureus); assay: Inhibition of recombinant Staphylococcus aureus FtsZ polymerization at 0.4 to 1.2 ug/ml by 90 degree light scattering-based fluorescence spectrometric analysis; settings: TDE = time-dependent effect
[30] = molecular target: T2, Cell division protein FtsZ (Staphylococcus aureus); assay: Inhibition of recombinant Staphylococcus aureus FtsZ polymerization by 90 degree light scattering-based fluorescence spectrometric analysis

Row | Compound | MIC (Bacillus subtilis [1]) [µg/mL] | MIC (Staphylococcus aureus [2]) [µg/mL] | MIC (Staphylococcus aureus [3]) [µg/mL] | MIC (Staphylococcus aureus [4]) [µg/mL] | MIC (Staphylococcus aureus [5]) [µg/mL] | MIC (Enterococcus faecium [6]) [µg/mL] | MIC (Enterococcus faecium [7]) [µg/mL] | MIC (Enterococcus faecalis) [µg/mL] | MIC (Escherichia coli [8]) [µg/mL] | MIC (Escherichia coli [9]) [µg/mL] | MIC (Acinetobacter baumannii) [µg/mL] | MIC (Klebsiella pneumoniae) [µg/mL] | MIC (Pseudomonas aeruginosa) [µg/mL] | MIC (Enterobacter cloacae) [µg/mL] | MBC (Staphylococcus aureus [10]) [µg/mL] | MBC (Staphylococcus aureus [11]) [µg/mL] | Ratio (Staphylococcus aureus [12]) | Ratio (Staphylococcus aureus [13]) | Ratio (Staphylococcus aureus [14]) | inhibition [15] | other results
1 | C[n+]1c(/C=C/c2c[nH]c3ccccc23)cc(N2CCCCC2)c2ccccc21.[I-] | 4 | 2 | 1 | 2 | 4 | 4 | 2 | 4 | 8 | 16 | 16 | > 64 | > 64 | > 64 | 2 | 4 | 2 | 2 | 4 | Active | inhibition [16]: 41.9%; inhibition [17]: 34.3%; inhibition [18]: 31.8%; inhibition [19]: 27.8%; inhibition [20]: 13.6%; inhibition [21]: Dose-dependent effect; MIC (Escherichia coli [22]): 8 µg/mL; MIC (Escherichia coli [23]): 16 µg/mL
2 | C[n+]1c(/C=C/c2cc3ccccc3[nH]2)cc(N2CCCCC2)c2ccccc21.[I-] | 4 | 1 | 1 | 2 | 2 | 4 | 2 | 4 | 16 | 16 | 32 | > 64 | > 64 | > 64 | 2 | 4 | 2 | 2 | 4 | – | Activity (Staphylococcus aureus [24]): Active; Activity (Staphylococcus aureus [25]): Dose-dependent effect; Activity (Staphylococcus aureus [26]): 1 ×10³ CFU/ml; Activity [27]: 70 to 130 µm; Activity (Bacillus subtilis [28]): Non-Toxic; inhibition [16]: 52.1%; inhibition [17]: 48.3%; inhibition [18]: 40.8%; inhibition [19]: 30.2%; inhibition [20]: 17.9%; inhibition [21]: Dose-dependent effect; inhibition [29]: Tde; inhibition [30]: Dose-dependent effect; MIC (Escherichia coli [22]): 8 µg/mL; MIC (Escherichia coli [23]): 32 µg/mL
3 | CN[C@H](CC(C)C)C(=O)N[C@H]1C(=O)N[C@@H](CC(N)=O)C(=O)N[C@H]2C(=O)N[C@H]3C(=O)N[C@H](C(=O)N[C@H](C(=O)O)c4cc(O)cc(O)c4-c4cc3ccc4O)[C@H](O)c3ccc(c(Cl)c3)Oc3cc2cc(c3O[C@@H]2O[C@H](CO)[C@@H](O)[C@H](O)[C@H]2O[C@H]2C[C@](C)(N)[C@H](O)[C@H](C)O2)Oc2ccc(cc2Cl)[C@H]1O [VANCOMYCIN] | 0.25 (≈ 0.173 µM) | – | – | – | – | > 64 | – | 2 (≈ 1.38 µM) | > 64 | > 64 | 64 (≈ 44.2 µM) | > 64 | > 64 | > 64 | 2 (≈ 1.38 µM) | 2 (≈ 1.38 µM) | – | – | – | – | –
4 | CC1CCN(c2cc(/C=C/c3c[nH]c4ccccc34)[n+](C)c3ccccc23)CC1.[I-] | 4 | 2 | 4 | 4 | 4 | 4 | 2 | 4 | 16 | 32 | 32 | > 64 | > 64 | > 64 | – | – | – | – | – | Active | –
5 | CO[C@H]1/C=C/O[C@@]2(C)Oc3c(C)c(O)c4c(O)c(c(/C=N/N5CCN(C)CC5)c(O)c4c3C2=O)NC(=O)/C(C)=C\C=C\[C@H](C)[C@H](O)[C@@H](C)[C@@H](O)[C@@H](C)[C@H](OC(C)=O)[C@@H]1C [RIFAMPIN] | – | – | – | – | – | – | – | – | – | – | – | – | – | – | – | – | – | – | 2000 | – | –
